Measurements from patent US12539324B2, “Antimicrobial peptide stimulating sanitizing composition” (GOJO Industries, Inc., priority 2016, dated 2026).

Tests used:
Format in all cases: cell-based, human
HBD-3 = HBD-3 ELISA, dose response in NHEK culture medium; conditions: vs control culture medium
Method: (§1) To determine the optimal dose of active ingredient, test dose response studies were run using both Decorinyl® and Pamitoyl Pentapeptided-3. These test dose response studies were commissioned to determine the concentration of HBD-3 at various levels of the active ingredients. Neonatal Human Epidermal Keratinocytes (NHEK; Life Technology, Grand Island, NY, USA) were cultured with keratinocyte growth medium (KGM, Medium 154: M-154-500 Life Technology with supplements 5-001, Life Technologies). NHEK were seeded into 96-well plates at a density of 10000 cells in 200 μl medium per well. After 48 hours, the cells were incubated with varying concentrations of each ingredient solution in a culture medium (KGM) overnight (16 hours) at 37° C., 5% CO2 and 95% humidity at four replicates for each concentration. Each of these active ingredients was tested at the following weight percents based on the weight of the total culture: 0.02 wt. %, 0.05 wt. %, 0.1 wt. %, 0.2 wt. %, 0.5 wt. %, 1.0 wt. %, 2.0 wt. %. Each of these compositions was compared to a control culture medium.
HBD-3 was detected using HBD-3 ELISA developing kits (commercially available from Peprotech). […] The results were measured using a colorimeter, absorbance was measured at 450 nanometers (nm) within 30 minutes. […] The concentration of each sample was calculated using ELISA standard curve.

HBD-1 = HBD-1 ELISA, dose response in NHEK culture medium; conditions: vs control culture medium
Method: as §1, with “HBD-1” for “HBD-3”, “S-001,” for “5-001,”
HBD-1 was detected using HBD-1 ELISA (enzyme-linked immunosorbent assay) developing kits (commercially available from Peprotech). […] The results were measured using a colorimeter, absorbance was measured at 450 nanometers (nm) within 30 minutes. […] The concentration of each sample was calculated using ELISA standard curve.

HBD-2 = HBD-2 ELISA, dose response in NHEK culture medium; conditions: 2.0 wt. %, vs control culture medium
Method: as §1, with “of HBD-2” for “of HBD-3”, “supplements S-001,” for “supplements 5-001,”, “ingredients were” for “ingredients was”
HBD-2 was detected using HBD-2 ELISA developing kits (commercially available from Peprotech). […] The results were measured using a colorimeter, absorbance was measured at 450 nanometers (nm) within 30 minutes. […] The concentration of each sample was calculated using ELISA standard curve.

palmitoyl pentapeptide-3 [Pamitoyl Pentapeptided-3]
increase in HBD-3 concentration (HBD-3; 1.0 wt. %): 1005% | increase in HBD-3 concentration (HBD-3; 2.0 wt. %): 1890% | increase in HBD-1 concentration (HBD-1; 1.0 wt. %): 311% | increase in HBD-1 concentration (HBD-1; 2.0 wt. %): 1561% | increase in HBD-2 concentration (HBD-2): 2800%
